# Reference: patent publication US4260682A, “High sensitivity assays for angiotensin converting enzyme” (priority 1979, dated 1981)
# Square brackets hold non-standard residues; d marks the D form. Ends that are not written are not given here. Peptide text beside a SMILES is read from it. pGlu = O=C1CC[C@@H](C(=O)O)N1
# Legend:
# ACE [1] = conditions: cited from earlier work
# ACE [2] = biological target: T1, ACE (Oryctolagus cuniculus, UniProt P12822); conditions: cited from earlier work
# T1 sequence (P12822 34-1310): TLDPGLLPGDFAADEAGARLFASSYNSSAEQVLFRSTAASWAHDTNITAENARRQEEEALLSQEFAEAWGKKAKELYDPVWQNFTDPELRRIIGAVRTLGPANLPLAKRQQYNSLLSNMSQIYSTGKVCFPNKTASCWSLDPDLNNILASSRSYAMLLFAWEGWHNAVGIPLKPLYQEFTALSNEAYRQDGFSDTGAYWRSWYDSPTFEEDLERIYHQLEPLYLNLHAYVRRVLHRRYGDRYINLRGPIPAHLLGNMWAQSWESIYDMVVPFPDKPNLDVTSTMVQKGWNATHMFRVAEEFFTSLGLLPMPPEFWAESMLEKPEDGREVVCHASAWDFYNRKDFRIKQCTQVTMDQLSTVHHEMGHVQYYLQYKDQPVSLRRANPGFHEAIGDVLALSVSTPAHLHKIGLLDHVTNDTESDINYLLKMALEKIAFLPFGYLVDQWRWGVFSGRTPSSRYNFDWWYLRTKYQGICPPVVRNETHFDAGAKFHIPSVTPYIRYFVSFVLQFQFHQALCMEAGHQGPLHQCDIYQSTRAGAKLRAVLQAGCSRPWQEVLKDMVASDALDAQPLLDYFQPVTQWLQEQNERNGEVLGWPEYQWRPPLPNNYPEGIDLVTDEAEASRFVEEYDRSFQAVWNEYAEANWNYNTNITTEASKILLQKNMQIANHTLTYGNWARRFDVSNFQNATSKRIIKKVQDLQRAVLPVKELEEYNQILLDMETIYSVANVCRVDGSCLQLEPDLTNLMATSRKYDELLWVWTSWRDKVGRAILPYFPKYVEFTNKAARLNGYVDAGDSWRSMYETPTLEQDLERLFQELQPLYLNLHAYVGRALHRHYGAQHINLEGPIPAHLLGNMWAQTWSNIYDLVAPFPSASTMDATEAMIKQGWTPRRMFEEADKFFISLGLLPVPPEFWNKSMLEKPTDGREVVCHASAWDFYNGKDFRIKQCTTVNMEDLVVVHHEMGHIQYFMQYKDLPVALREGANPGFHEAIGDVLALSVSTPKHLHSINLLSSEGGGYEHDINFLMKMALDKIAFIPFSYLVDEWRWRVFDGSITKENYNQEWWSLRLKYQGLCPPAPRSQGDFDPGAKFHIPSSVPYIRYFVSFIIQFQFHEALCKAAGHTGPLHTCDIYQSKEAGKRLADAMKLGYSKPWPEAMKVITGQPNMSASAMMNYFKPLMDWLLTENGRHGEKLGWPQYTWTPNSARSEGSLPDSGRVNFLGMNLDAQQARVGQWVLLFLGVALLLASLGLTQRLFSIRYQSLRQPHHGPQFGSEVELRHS
# [3] = Extraction from the acidified reaction mixture into organic solvent; assay type: physicochemical
# Protocol: (§1) An even more sensitive assay for ACE activity has been developed using the novel compound ^3 H-benzoylPheAlaPro as substrate. This new substrate can be used to assay ACE in human urine in incubations as short as 15 minutes. The response of this substrate to ions is strikingly different from the response of HipHisLeu. […] This difficulty has been solved by the proper choice of extracting solvent. While a variety of organic solvents may be suitable for the extraction step, it is preferred to employ toluene. Approximately 88% of ^3 H-benzoylPhe enters the toluene phase while only 6% of the unhydrolyzed substrate enters the toluene phase, when toluene and the acidified reaction mixture are in approximately equal volumes at room temperatures.
# Guinea pig serum ACE = biological target: T2, Guinea pig serum ACE (Cavia porcellus, UniProt H0UWL7); test: Kinetics of benzoyl-Phe-Ala-Pro hydrolysis; conditions: read-out: apparent Km; 0.05 M Hepes, pH 8.0, 0.15 M NaCl; Lineweaver and Burke plot
# T2 sequence (H0UWL7 33-1234): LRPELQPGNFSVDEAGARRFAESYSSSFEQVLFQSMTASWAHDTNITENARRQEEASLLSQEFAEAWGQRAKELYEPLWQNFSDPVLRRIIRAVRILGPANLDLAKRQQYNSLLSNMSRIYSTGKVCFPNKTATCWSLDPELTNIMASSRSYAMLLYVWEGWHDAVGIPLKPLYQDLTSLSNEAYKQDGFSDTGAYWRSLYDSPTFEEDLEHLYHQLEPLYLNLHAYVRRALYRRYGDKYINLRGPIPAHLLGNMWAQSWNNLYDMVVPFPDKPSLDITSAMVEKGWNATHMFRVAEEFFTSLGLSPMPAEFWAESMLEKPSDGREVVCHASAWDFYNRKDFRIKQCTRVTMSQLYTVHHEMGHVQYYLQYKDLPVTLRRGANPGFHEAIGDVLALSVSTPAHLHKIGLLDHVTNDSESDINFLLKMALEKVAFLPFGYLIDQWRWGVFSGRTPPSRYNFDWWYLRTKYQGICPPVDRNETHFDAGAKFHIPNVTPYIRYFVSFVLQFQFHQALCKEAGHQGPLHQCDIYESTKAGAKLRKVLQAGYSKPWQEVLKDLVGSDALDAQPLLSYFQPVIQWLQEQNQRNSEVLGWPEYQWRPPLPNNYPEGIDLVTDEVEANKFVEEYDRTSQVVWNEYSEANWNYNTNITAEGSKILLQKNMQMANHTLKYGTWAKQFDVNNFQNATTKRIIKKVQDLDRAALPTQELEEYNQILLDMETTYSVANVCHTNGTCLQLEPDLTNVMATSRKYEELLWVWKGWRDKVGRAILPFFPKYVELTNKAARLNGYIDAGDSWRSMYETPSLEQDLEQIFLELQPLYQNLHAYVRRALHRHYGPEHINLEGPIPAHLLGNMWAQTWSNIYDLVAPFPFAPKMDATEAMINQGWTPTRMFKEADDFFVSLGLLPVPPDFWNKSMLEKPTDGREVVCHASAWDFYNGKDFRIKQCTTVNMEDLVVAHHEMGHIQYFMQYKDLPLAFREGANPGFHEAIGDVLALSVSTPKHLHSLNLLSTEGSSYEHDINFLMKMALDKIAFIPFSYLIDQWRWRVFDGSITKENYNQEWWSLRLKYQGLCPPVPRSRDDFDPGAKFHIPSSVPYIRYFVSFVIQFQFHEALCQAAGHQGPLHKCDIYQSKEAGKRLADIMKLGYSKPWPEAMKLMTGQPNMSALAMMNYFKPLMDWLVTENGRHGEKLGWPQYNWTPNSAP
# Protocol: Kinetics of Benzoyl-Phe-Ala-Pro Hydrolysis
# The apparent Km for the ACE catalyzed hydrolysis of benzoyl-Phe-Ala-Pro was measured in the following manner. […] Guinea pig serum was diluted 1:1000 to provide the enzyme. A mixture of 50 μl diluted serum and 50 μl of substrate, diluted in the reaction buffer to provide the appropriate substrate concentration for each experiment, was incubated at 37° C. for 10 minutes. At the end of the incubation, 1.0 ml of 0.1 M HCl was added to stop the reaction. The reaction mixture was then extracted with 1.0 ml toluene, and a 0.5 ml aliquot of the toluene phase was counted in a scintillation counter.
# ACE [4] = test: Sulfate and chloride effects on ACE catalysed hydrolysis (general description); assay type: biochemical; conditions: 0.05 M Hepes, pH 8.0
# Source text: An assay for ACE, using HipHisLeu as substrate, is herewith described. The assay is more sensitive than any heretofore disclosed using HipHisLeu as substrate. Maximum sensitivity is achieved by the inclusion of sulfate ions, preferably as sodium sulfate, in the reaction mixture. When 0.1 M NaCl is present in the reaction mixture, sulfate ions are stimulatory from 0.1 M to at least 1.1 M. Maximum stimulation occurs in the range from 0.75 M to 1.1 M Na2 SO4.
# as §1
# The enzyme is active over a broad pH range with a maximum around pH 8.0, but is at least about 50% active in the range pH 7.0-pH 8.8, for both HipHisLeu and benzoylPheAlaPro. Although the enzyme is active in a variety of buffer systems known in the art, it is preferred for convenience, when using benzoylPheAlaPro as substrate, to conduct the assays in 0.05 M Hepes buffer, pH 8.0 containing 0.15 M sodium chloride. Detailed protocols for carrying out the assay are given in the examples. […] The preferred concentration range is 1×10^-9 M to 7×10^- 5 M.
# ACE [5] = biological target: ACE (Homo sapiens, UniProt P12821); test: Comparison of sensitivity of ACE radioassays; assay type: biochemical
# Source text: A comparison of the sensitivity of the disclosed assay methods with each other and with prior art assays may be made by considering assays which depend upon measuring the radioactivity of the remnant reaction product. A prior art assay of this type, using ^3 H-HipGlyGly as substrate has been described (Ryan and Chung, supra). Of the two assays disclosed herein, the sulfate stimulated hydrolysis of ^3 H-HipHisLeu is approximately 20 times more sensitive, and the ^3 H-benzoylPheAlaPro assay is about 10 times more sensitive still. The latter is therefore approximately 200 times more sensitive than the assay using ^3 H-HipGlyGly.
# Chain of ACE (Homo sapiens, UniProt P12821) (P12821 30-1306, species assumed): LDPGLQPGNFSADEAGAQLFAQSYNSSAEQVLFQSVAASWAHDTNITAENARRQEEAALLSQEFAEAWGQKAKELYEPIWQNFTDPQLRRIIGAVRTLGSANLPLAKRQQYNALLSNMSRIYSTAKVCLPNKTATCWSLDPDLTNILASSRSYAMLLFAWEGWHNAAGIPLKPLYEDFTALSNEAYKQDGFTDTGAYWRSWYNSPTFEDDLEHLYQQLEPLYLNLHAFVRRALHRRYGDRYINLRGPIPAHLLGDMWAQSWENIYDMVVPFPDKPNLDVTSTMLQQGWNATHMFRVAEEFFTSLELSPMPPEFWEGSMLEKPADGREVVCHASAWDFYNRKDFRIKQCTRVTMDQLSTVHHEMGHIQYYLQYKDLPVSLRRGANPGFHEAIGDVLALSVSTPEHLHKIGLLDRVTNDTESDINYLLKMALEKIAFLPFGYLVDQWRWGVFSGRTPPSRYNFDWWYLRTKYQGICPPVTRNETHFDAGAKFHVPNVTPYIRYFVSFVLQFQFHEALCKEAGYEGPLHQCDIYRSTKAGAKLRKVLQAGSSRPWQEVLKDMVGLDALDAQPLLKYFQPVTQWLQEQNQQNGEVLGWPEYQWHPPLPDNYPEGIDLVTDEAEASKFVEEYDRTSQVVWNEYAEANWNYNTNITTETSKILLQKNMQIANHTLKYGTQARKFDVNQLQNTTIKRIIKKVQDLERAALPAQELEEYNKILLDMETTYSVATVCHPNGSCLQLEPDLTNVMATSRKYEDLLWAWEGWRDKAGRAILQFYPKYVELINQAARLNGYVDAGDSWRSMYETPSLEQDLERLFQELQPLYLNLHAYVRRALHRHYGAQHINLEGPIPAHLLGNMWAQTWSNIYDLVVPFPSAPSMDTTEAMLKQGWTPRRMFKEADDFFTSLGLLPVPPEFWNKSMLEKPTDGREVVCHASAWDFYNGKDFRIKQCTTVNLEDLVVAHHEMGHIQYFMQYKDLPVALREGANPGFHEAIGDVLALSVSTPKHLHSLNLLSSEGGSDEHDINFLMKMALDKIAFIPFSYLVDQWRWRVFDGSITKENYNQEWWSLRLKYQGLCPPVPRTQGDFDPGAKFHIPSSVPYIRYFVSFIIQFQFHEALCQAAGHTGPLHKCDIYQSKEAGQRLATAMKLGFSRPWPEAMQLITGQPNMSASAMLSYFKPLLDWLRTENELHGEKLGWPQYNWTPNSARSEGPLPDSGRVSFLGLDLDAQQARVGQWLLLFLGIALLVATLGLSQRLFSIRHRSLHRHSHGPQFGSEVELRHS
Compound,competitive substrate of ACE (ACE [1]),substrate for the enzyme (ACE [2]),cleavage in the presence of chloride (ACE [2]; vs. buffer of undisclosed composition),extraction into ethyl acetate ([3]; acidified with dilute hydrochloric acid),"fraction entering the toluene phase ([3]; toluene and acidified reaction mixture in approximately equal volumes, room temperature)",Km (Guinea pig serum ACE),hydrolysis in the absence of any added salt (ACE [4]),sensitivity relative to the sulfate-stimulated HipHisLeu assay (ACE [5]),"sensitivity relative to the assay using ^3 H-HipGlyGly (ACE [5]; radioactivity of remnant product, HipHisLeu assay sulfate stimulated)"
"NC(N)=NCCC[C@H](NC(=O)[C@H](Cc1ccccc1)NC(=O)[C@@H]1CCCN1C(=O)[C@H](CO)NC(=O)[C@H](Cc1ccccc1)NC(=O)CNC(=O)[C@@H]1CCCN1C(=O)[C@@H]1CCCN1C(=O)[C@@H](N)CCCN=C(N)N)C(=O)O [bradykinin, ArgProProGlyPheSerProPheArg] (H-RPPGFSPFR-OH)",competitive substrates,–,–,–,–,–,–,–,–
<GluLysTrpAlaPro ([pGlu]KWAP) [BPP5a],competitive substrates,could serve as a substrate for the enzyme,proceeded more slowly in the presence of chloride,–,–,–,–,–,–
^3 H-benzoylPheAlaPro,–,–,–,extracted almost quantitatively into ethyl acetate,6%,14 µM,ACE will hydrolyze,about 10 times,approximately 200 times
